Results: the supplement of paper PMC10307832

Columns and labels:
Experiment in all cases: relative viability (nuclei count vs DMSO), 5 days (fraction); higher = more cells survive
[1] = test system: NCI-H2087
Outline: (§1)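 Cells from lung cancer lines were seeded into 1536-well plates and, one day later, dosed by pin tool. Treatments were either a single drug or a fixed dose of an anchor drug with five library-drug doses (not always all listed) in √10 steps. After 5 days, nuclei were stained in a one-step fixation (final 0.05% Triton X-100, 1% formaldehyde, 1 ug/ml Hoechst) and counted on 4× images, and relative viability is the treated-to-vehicle nuclei ratio, as the median of duplicate plates.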

[2] = test system: HCC-827
Outline: as §1

[3] = test system: NCI-H1944
Outline: as §1

[4] = test system: NCI-H727
Outline: as §1

[5] = test system: 201T
Outline: as §1

[6] = test system: NCI-H647
Outline: as §1

[7] = test system: NCI-H322M
Outline: as §1

[8] = test system: RERF-LC-KJ
Outline: as §1

[9] = test system: NCI-H2405
Outline: as §1

[10] = test system: LCLC-103H
Outline: as §1

[11] = test system: NCI-H1437
Outline: as §1

[12] = test system: LCLC-97TM1
Outline: as §1

[13] = test system: NCI-H2228
Outline: as §1

[14] = test system: SK-LU-1
Outline: as §1

[15] = test system: LXF-289
Outline: as §1

[16] = test system: CAL-12T
Outline: as §1

[17] = test system: NCI-H1650
Outline: as §1

[18] = test system: BEN
Outline: as §1

[19] = test system: NCI-H1395
Outline: as §1

[20] = test system: NCI-H1793
Outline: as §1

[21] = test system: NCI-H3122
Outline: as §1

Nc1ccn([C@@H]2O[C@H](CO)[C@@H](O)[C@@H]2O)c(=O)n1 [Cytarabine] + O=C(CCCCCCC(=O)Nc1ccccc1)NO [Vorinostat] (partner 1 µM)
relative viability ([1]; first compound 0.005 µM): 0.416 | relative viability ([1]; first compound 0.01581 µM): 0.961 | relative viability ([1]; first compound 0.05 µM): 0.598 | relative viability ([1]; first compound 0.1581 µM): 0.288 | relative viability ([1]; first compound 0.5 µM): 0.308 | relative viability ([2]; first compound 0.005 µM): 0.539 | relative viability ([2]; first compound 0.01581 µM): 0.331 | relative viability ([2]; first compound 0.05 µM): 0.169 | relative viability ([2]; first compound 0.1581 µM): 0.145 | relative viability ([2]; first compound 0.5 µM): 0.141 | relative viability ([3]; first compound 0.005 µM): 0.508 | relative viability ([3]; first compound 0.01581 µM): 0.326 | relative viability ([3]; first compound 0.05 µM): 0.309 | relative viability ([3]; first compound 0.1581 µM): 0.203 | relative viability ([3]; first compound 0.5 µM): 0.159 | relative viability ([4]; first compound 0.005 µM): 1.22 | relative viability ([4]; first compound 0.01581 µM): 1.16 | relative viability ([4]; first compound 0.05 µM): 0.566 | relative viability ([4]; first compound 0.1581 µM): 0.552 | relative viability ([4]; first compound 0.5 µM): 0.524 | relative viability ([5]; first compound 0.005 µM): 0.978 | relative viability ([5]; first compound 0.01581 µM): 1.03 | relative viability ([5]; first compound 0.05 µM): 1 | relative viability ([5]; first compound 0.1581 µM): 0.994 | relative viability ([5]; first compound 0.5 µM): 0.937 | relative viability ([6]; first compound 0.005 µM): 0.284 | relative viability ([6]; first compound 0.01581 µM): 0.294 | relative viability ([6]; first compound 0.05 µM): 0.149 | relative viability ([6]; first compound 0.1581 µM): 0.0878 | relative viability ([6]; first compound 0.5 µM): 0.0778 | relative viability ([7]; first compound 0.005 µM): 0.804 | relative viability ([7]; first compound 0.01581 µM): 0.785 | relative viability ([7]; first compound 0.05 µM): 0.641 | relative viability ([7]; first compound 0.1581 µM): 0.589 | relative viability ([7]; first compound 0.5 µM): 0.426 | relative viability ([8]; first compound 0.005 µM): 0.569 | relative viability ([8]; first compound 0.01581 µM): 0.66 | relative viability ([8]; first compound 0.05 µM): 0.513 | relative viability ([8]; first compound 0.1581 µM): 0.474 | relative viability ([8]; first compound 0.5 µM): 0.393 | relative viability ([9]; first compound 0.005 µM): 1.02 | relative viability ([9]; first compound 0.01581 µM): 0.748 | relative viability ([9]; first compound 0.05 µM): 0.624 | relative viability ([9]; first compound 0.1581 µM): 0.43 | relative viability ([9]; first compound 0.5 µM): 0.374 | relative viability ([10]; first compound 0.005 µM): 0.806 | relative viability ([10]; first compound 0.01581 µM): 0.861 | relative viability ([10]; first compound 0.05 µM): 0.758 | relative viability ([10]; first compound 0.1581 µM): 0.745 | relative viability ([10]; first compound 0.5 µM): 0.692 | relative viability ([11]; first compound 0.005 µM): 0.889 | relative viability ([11]; first compound 0.01581 µM): 0.77 | relative viability ([11]; first compound 0.05 µM): 0.605 | relative viability ([11]; first compound 0.1581 µM): 0.423 | relative viability ([11]; first compound 0.5 µM): 0.303 | relative viability ([12]; first compound 0.005 µM): 0.752 | relative viability ([12]; first compound 0.01581 µM): 0.562 | relative viability ([12]; first compound 0.05 µM): 0.166 | relative viability ([12]; first compound 0.1581 µM): 0.275 | relative viability ([12]; first compound 0.5 µM): 0.102 | relative viability ([13]; first compound 0.005 µM): 0.472 | relative viability ([13]; first compound 0.01581 µM): 0.275 | relative viability ([13]; first compound 0.05 µM): 0.197 | relative viability ([13]; first compound 0.1581 µM): 0.106 | relative viability ([13]; first compound 0.5 µM): 0.0947 | relative viability ([14]; first compound 0.005 µM): 0.509 | relative viability ([14]; first compound 0.01581 µM): 0.665 | relative viability ([14]; first compound 0.05 µM): 0.632 | relative viability ([14]; first compound 0.1581 µM): 0.479 | relative viability ([14]; first compound 0.5 µM): 0.422 | relative viability ([15]; first compound 0.005 µM): 0.736 | relative viability ([15]; first compound 0.01581 µM): 0.856 | relative viability ([15]; first compound 0.05 µM): 0.639 | relative viability ([15]; first compound 0.1581 µM): 0.464 | relative viability ([15]; first compound 0.5 µM): 0.27 | relative viability ([16]; first compound 0.005 µM): 0.53 | relative viability ([16]; first compound 0.01581 µM): 0.68 | relative viability ([16]; first compound 0.05 µM): 0.739 | relative viability ([16]; first compound 0.1581 µM): 0.477 | relative viability ([16]; first compound 0.5 µM): 0.27 | relative viability ([17]; first compound 0.005 µM): 0.563 | relative viability ([17]; first compound 0.01581 µM): 0.514 | relative viability ([17]; first compound 0.05 µM): 0.261 | relative viability ([17]; first compound 0.1581 µM): 0.241 | relative viability ([17]; first compound 0.5 µM): 0.226 | relative viability ([18]; first compound 0.005 µM): 0.553 | relative viability ([18]; first compound 0.01581 µM): 0.56 | relative viability ([18]; first compound 0.05 µM): 0.447 | relative viability ([18]; first compound 0.1581 µM): 0.394 | relative viability ([18]; first compound 0.5 µM): 0.364 | relative viability ([19]; first compound 0.005 µM): 0.692 | relative viability ([19]; first compound 0.01581 µM): 0.586 | relative viability ([19]; first compound 0.05 µM): 0.5 | relative viability ([19]; first compound 0.1581 µM): 0.357 | relative viability ([19]; first compound 0.5 µM): 0.349 | relative viability ([20]; first compound 0.005 µM): 0.631 | relative viability ([20]; first compound 0.01581 µM): 0.607 | relative viability ([20]; first compound 0.05 µM): 0.643 | relative viability ([20]; first compound 0.1581 µM): 0.352 | relative viability ([20]; first compound 0.5 µM): 0.186 | relative viability ([21]; first compound 0.005 µM): 0.938 | relative viability ([21]; first compound 0.01581 µM): 0.914 | relative viability ([21]; first compound 0.05 µM): 0.894 | relative viability ([21]; first compound 0.1581 µM): 0.695 | relative viability ([21]; first compound 0.5 µM): 0.293
